Assay results from article PMC2248166, “Quantitative peptide binding motifs for 19 human and mouse MHC class I molecules derived using positional scanning combinatorial peptide libraries” (Immunome Research, 2008).

biological target: HLA A*3001 (Homo sapiens, UniProt P04439, D140H/D185E/E176W/F33S/G80R/H175R/K168Q/R138E/R41S); experiment: biochemical; type: binding

| Sequence | Normalized average relative binding affinity(ARB) |
| --- | --- |
| XXXXXXLXX [3064.0130] | 0.21 |
| XXXXXXMXX [3064.0131] | 0.32 |
| XXXXXXNXX [3064.0132] | 0.10 |
| XXXXXXPXX [3064.0133] | 1.0 |
| XXXXXXQXX [3064.0134] | 0.29 |
| XXXXXXRXX [3064.0135] | 0.085 |

biological target: HLA A*3201 (Homo sapiens, UniProt P04439, A270S/D101S/D185E/E176V/E277Q/F133L/G103R/G107R/G231S/H175R/I121M/I218V/I322F/K168Q/L105A/L300P/L318F/M331R/P208A/P217A/Q94H/R106L/R138Q/S129P/T104I/T323A/T345S/V100E/V321M/V358M); experiment: biochemical; type: binding

| Sequence | Normalized average relative binding affinity(ARB) |
| --- | --- |
| XXXXXXLXX [3064.0130] | 0.86 |
| XXXXXXMXX [3064.0131] | 0.10 |
| XXXXXXNXX [3064.0132] | 0.42 |
| XXXXXXPXX [3064.0133] | 0.088 |
| XXXXXXQXX [3064.0134] | 0.33 |
| XXXXXXRXX [3064.0135] | 0.10 |

biological target: HLA A*6802 (Homo sapiens, UniProt P04439, A269V/D140Y/D185E/E176V/E277Q/E87N/F33Y/G231S/I121R/I166T/I218V/L180W/L300P/L318F/N151K/P208A/P217A/Q86R/R138H/R169H/S129P/T345S/V36M); experiment: not given; type: binding

| Sequence | Normalized average relative binding affinity(ARB) |
| --- | --- |
| XXXXXXLXX [3064.0130] | 0.56 |
| XXXXXXMXX [3064.0131] | 0.51 |
| XXXXXXNXX [3064.0132] | 0.54 |
| XXXXXXPXX [3064.0133] | 0.37 |
| XXXXXXQXX [3064.0134] | 0.45 |
| XXXXXXRXX [3064.0135] | 0.11 |

biological target: HLA B*0801 (Homo sapiens, UniProt P01889, A93T/A95T/D138N/E176V/E187T/K202T/Q94N/R180D/S35A/V36M/Y33D/Y91F); experiment: biochemical; type: binding

| Sequence | Normalized average relative binding affinity(ARB) |
| --- | --- |
| XXXXXXLXX [3064.0130] | 0.60 |
| XXXXXXMXX [3064.0131] | 0.62 |
| XXXXXXNXX [3064.0132] | 0.69 |
| XXXXXXPXX [3064.0133] | 0.36 |
| XXXXXXQXX [3064.0134] | 0.79 |
| XXXXXXRXX [3064.0135] | 0.50 |

biological target: HLA B*1501 (Homo sapiens, UniProt P01889, A329T/A93T/A95T/C349S/D201E/D98Y/E187L/E204Q/E69M/E70A/K202T/N87E/Q94N/R155S/R180W/S121R/S35A/S48A/V306I/V36M/Y140S/Y91S); experiment: biochemical; type: binding

| Sequence | Normalized average relative binding affinity(ARB) |
| --- | --- |
| XXXXXXLXX [3064.0130] | 1.0 |
| XXXXXXMXX [3064.0131] | 0.54 |
| XXXXXXNXX [3064.0132] | 0.66 |
| XXXXXXPXX [3064.0133] | 0.62 |
| XXXXXXQXX [3064.0134] | 0.51 |
| XXXXXXRXX [3064.0135] | 0.22 |

biological target: HLA B*1503 (Homo sapiens, UniProt P01889, A329T/A93T/A95T/C349S/D201E/D98Y/E187L/E204Q/K202T/N87E/Q94N/R155S/R180L/S121R/S35A/V306I/V36M/Y140S/Y91S); experiment: biochemical; type: binding

| Sequence | Normalized average relative binding affinity(ARB) |
| --- | --- |
| XXXXXXLXX [3064.0130] | 0.24 |
| XXXXXXMXX [3064.0131] | 0.18 |
| XXXXXXNXX [3064.0132] | 1.0 |
| XXXXXXPXX [3064.0133] | 0.16 |
| XXXXXXQXX [3064.0134] | 0.95 |
| XXXXXXRXX [3064.0135] | 0.21 |

biological target: HLA B*3501 (Homo sapiens, UniProt P01889, A329T/A93T/A95T/C349S/D201E/D98Y/E176V/E187L/E204Q/E69T/I218V/K202T/L119I/Q94N/R155S/R180L/S121R/S35A/S48A/T118I/V127L/V306I/V36M/Y140S/Y91F); experiment: not given; type: binding

| Sequence | Normalized average relative binding affinity(ARB) |
| --- | --- |
| XXXXXXLXX [3064.0130] | 0.21 |
| XXXXXXMXX [3064.0131] | 0.13 |
| XXXXXXNXX [3064.0132] | 0.28 |
| XXXXXXPXX [3064.0133] | 0.31 |
| XXXXXXQXX [3064.0134] | 0.36 |
| XXXXXXRXX [3064.0135] | 0.16 |

biological target: HLA B*5101 (Homo sapiens, UniProt P01889, A329T/A93T/A95T/C349S/D138N/D201E/D98Y/E187L/E204Q/E69T/G107R/I218V/K202T/L105A/L119W/N104I/Q94N/R106L/R155S/R180L/S101N/S121T/S35A/S48A/V306I/V36M/Y195H/Y91F); experiment: not given; type: binding

| Sequence | Normalized average relative binding affinity(ARB) |
| --- | --- |
| XXXXXXLXX [3064.0130] | 0.65 |
| XXXXXXMXX [3064.0131] | 0.68 |
| XXXXXXNXX [3064.0132] | 0.46 |
| XXXXXXPXX [3064.0133] | 0.53 |
| XXXXXXQXX [3064.0134] | 0.50 |
| XXXXXXRXX [3064.0135] | 0.57 |

biological target: HLA B*5301 (Homo sapiens, UniProt P01889, A329T/A93T/A95T/C349S/D201E/D98Y/E176V/E187L/E204Q/E69T/G107R/I218V/K202T/L105A/L119I/N104I/Q94N/R106L/R155S/R180L/S101N/S121R/S35A/S48A/T118I/V127L/V306I/V36M/Y140S/Y91F); experiment: not given; type: binding

| Sequence | Normalized average relative binding affinity(ARB) |
| --- | --- |
| XXXXXXLXX [3064.0130] | 0.32 |
| XXXXXXMXX [3064.0131] | 0.15 |
| XXXXXXNXX [3064.0132] | 0.29 |
| XXXXXXPXX [3064.0133] | 0.50 |
| XXXXXXQXX [3064.0134] | 1.0 |
| XXXXXXRXX [3064.0135] | 0.25 |

biological target: HLA B*5401 (Homo sapiens, UniProt P01889, A329T/C349S/D138N/D201E/E176V/E187T/E204Q/E69G/I76V/K202T/L119W/R155S/R180L/S121T/S35A/S48A/V127L/V306I/V36M/Y140L); experiment: not given; type: binding

| Sequence | Normalized average relative binding affinity(ARB) |
| --- | --- |
| XXXXXXLXX [3064.0130] | 0.13 |
| XXXXXXMXX [3064.0131] | 0.065 |
| XXXXXXNXX [3064.0132] | 0.39 |
| XXXXXXPXX [3064.0133] | 0.32 |
| XXXXXXQXX [3064.0134] | 1.0 |
| XXXXXXRXX [3064.0135] | 0.13 |

biological target: HLA B*5801 (Homo sapiens, UniProt P01889, A329T/C349S/D201E/D98Y/E176V/E187L/E204Q/E69T/G107R/I218V/I90N/K202T/L105A/L119I/N104I/N87E/Q89R/Q94S/R106L/R155S/R180L/R86G/S101N/S121R/S35A/S48A/T118I/V127L/V306I/V36M/Y140S/Y91M); experiment: not given; type: binding

| Sequence | Normalized average relative binding affinity(ARB) |
| --- | --- |
| XXXXXXLXX [3064.0130] | 1.0 |
| XXXXXXMXX [3064.0131] | 0.30 |
| XXXXXXNXX [3064.0132] | 0.37 |
| XXXXXXPXX [3064.0133] | 0.22 |
| XXXXXXQXX [3064.0134] | 0.23 |
| XXXXXXRXX [3064.0135] | 0.075 |

biological target: HLA B*5802 (Homo sapiens, UniProt P01889, A329T/C349S/D201E/D98Y/E176V/E187L/E204Q/E69T/G107R/I218V/I90N/K202T/L105A/N104I/N87E/Q89R/Q94S/R106L/R155S/R180L/R86G/S101N/S121W/S35A/S48A/V127L/V306I/V36M/Y140S/Y91M); experiment: not given; type: binding

| Sequence | Normalized average relative binding affinity(ARB) |
| --- | --- |
| XXXXXXLXX [3064.0130] | 0.014 |
| XXXXXXMXX [3064.0131] | 0.35 |
| XXXXXXNXX [3064.0132] | 0.092 |
| XXXXXXPXX [3064.0133] | 1.0 |
| XXXXXXQXX [3064.0134] | 0.22 |
| XXXXXXRXX [3064.0135] | 0.21 |

biological target: H-2 D^b (Mus musculus, UniProt P01899); experiment: not given; type: binding
Sequence (P01887 21-119): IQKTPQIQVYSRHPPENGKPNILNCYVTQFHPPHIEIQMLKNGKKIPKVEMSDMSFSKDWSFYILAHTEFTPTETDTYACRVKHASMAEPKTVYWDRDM
Sequence (P01899 25-362): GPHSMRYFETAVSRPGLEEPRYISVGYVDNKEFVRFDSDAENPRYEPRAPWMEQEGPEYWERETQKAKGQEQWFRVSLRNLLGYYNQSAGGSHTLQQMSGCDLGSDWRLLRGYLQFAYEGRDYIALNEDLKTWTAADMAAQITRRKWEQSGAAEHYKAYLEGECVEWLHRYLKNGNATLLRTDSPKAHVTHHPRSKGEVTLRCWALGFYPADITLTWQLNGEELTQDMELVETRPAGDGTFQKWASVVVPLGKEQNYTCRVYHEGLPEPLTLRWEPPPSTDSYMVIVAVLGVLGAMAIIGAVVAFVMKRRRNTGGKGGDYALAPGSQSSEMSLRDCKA

| Sequence | Normalized average relative binding affinity(ARB) |
| --- | --- |
| XXXXXXLXX [3064.0130] | 0.26 |
| XXXXXXMXX [3064.0131] | 0.24 |
| XXXXXXNXX [3064.0132] | 0.41 |
| XXXXXXPXX [3064.0133] | 0.26 |
| XXXXXXQXX [3064.0134] | 0.84 |
| XXXXXXRXX [3064.0135] | 0.15 |

biological target: H-2 D^d (Mus musculus, UniProt P01900); experiment: not given; type: binding
Sequence (P01900 whole entry, looked up): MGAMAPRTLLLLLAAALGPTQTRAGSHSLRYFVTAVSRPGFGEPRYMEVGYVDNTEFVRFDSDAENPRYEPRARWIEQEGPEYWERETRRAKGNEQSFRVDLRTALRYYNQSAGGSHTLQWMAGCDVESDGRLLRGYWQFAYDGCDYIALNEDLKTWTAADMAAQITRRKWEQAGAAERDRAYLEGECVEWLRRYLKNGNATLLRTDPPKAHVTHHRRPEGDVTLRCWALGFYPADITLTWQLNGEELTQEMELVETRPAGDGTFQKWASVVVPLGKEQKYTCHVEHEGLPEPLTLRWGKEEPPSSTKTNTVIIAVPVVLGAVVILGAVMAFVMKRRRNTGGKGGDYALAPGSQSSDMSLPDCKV

| Sequence | Normalized average relative binding affinity(ARB) |
| --- | --- |
| XXXXXXLXX [3064.0130] | 0.036 |
| XXXXXXMXX [3064.0131] | 0.024 |
| XXXXXXNXX [3064.0132] | 0.095 |
| XXXXXXPXX [3064.0133] | 0.020 |
| XXXXXXQXX [3064.0134] | 0.057 |
| XXXXXXRXX [3064.0135] | 0.013 |

biological target: H-2 K^d (Mus musculus, UniProt P01902); experiment: not given; type: binding
Sequence (P01887 21-119): as the sequence (P01887 21-119) above
Sequence (P01902 22-368): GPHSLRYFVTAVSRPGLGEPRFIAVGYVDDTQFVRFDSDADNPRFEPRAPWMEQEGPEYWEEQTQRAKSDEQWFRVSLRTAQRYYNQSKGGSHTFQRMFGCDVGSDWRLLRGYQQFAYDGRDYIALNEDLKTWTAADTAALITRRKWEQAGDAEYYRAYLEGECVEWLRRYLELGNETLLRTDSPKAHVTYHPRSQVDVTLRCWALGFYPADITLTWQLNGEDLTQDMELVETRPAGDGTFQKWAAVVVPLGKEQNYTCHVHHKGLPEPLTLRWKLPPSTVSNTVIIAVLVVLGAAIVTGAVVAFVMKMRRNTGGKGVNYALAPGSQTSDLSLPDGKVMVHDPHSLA

| Sequence | Normalized average relative binding affinity(ARB) |
| --- | --- |
| XXXXXXLXX [3064.0130] | 0.10 |
| XXXXXXMXX [3064.0131] | 0.080 |
| XXXXXXNXX [3064.0132] | 0.61 |
| XXXXXXPXX [3064.0133] | 0.021 |
| XXXXXXQXX [3064.0134] | 0.25 |
| XXXXXXRXX [3064.0135] | 0.11 |

biological target: H-2 K^k (Mus musculus, UniProt P04223); experiment: not given; type: binding
Sequence (P01887 21-119): as the sequence (P01887 21-119) above
Sequence (P04223 22-369): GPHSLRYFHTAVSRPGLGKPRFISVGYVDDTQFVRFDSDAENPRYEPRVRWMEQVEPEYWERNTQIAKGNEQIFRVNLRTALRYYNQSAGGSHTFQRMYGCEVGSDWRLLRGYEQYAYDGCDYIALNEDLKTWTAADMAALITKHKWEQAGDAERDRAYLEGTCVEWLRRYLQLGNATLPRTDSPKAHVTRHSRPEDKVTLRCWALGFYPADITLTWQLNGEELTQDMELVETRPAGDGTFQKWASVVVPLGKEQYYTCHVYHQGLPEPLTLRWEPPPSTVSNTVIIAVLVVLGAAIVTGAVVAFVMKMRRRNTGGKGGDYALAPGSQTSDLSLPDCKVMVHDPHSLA

| Sequence | Normalized average relative binding affinity(ARB) |
| --- | --- |
| XXXXXXLXX [3064.0130] | 0.10 |
| XXXXXXMXX [3064.0131] | 0.064 |
| XXXXXXNXX [3064.0132] | 0.22 |
| XXXXXXPXX [3064.0133] | 0.10 |
| XXXXXXQXX [3064.0134] | 0.016 |
| XXXXXXRXX [3064.0135] | 0.21 |
